Experimental data taken from ChEMBL document CHEMBL1201862, “PubChem BioAssay data set” (2004).
Calls of active or inactive are those of the source.

Key:
[1] = reduced cellular PGC1a acetyl-lysine signal – cell-based, cherry-picked samples, dose response (AID 720514); format: functional;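 further: potency may reflect raised or lowered acetylation signal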
cells [2] = format: functional, cell-based
[3] = biological target: T1, Trace amine-associated receptor 1 (Homo sapiens, UniProt Q96RJ0); assay: Fluorescence-based cell-based high throughput dose response assay to identify agonists of the human trace amine associated receptor 1 (TAAR1).; format: functional
T1 sequence (Q96RJ0 whole entry): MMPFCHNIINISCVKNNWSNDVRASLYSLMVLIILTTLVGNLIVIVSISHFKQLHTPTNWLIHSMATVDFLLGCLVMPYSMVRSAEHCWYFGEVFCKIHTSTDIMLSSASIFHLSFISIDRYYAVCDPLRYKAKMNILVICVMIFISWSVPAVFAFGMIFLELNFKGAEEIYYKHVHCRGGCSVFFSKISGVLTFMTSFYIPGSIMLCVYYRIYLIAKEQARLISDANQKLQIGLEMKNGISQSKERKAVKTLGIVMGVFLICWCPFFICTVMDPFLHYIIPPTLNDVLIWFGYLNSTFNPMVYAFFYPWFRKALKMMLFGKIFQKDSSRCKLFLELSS

[4] = biological target: T1, Trace amine-associated receptor 1; assay: Counterscreen for agonists of the human trace amine associated receptor 1 (hTAAR1): Fluorescence-based cell-based high throughput dose response assay to identify hTAAR1 agonist that also desensitize TAAR1 receptor response.; format: functional
cells [5] = format: functional, cell-based; remark: listed apart in the source
Major prion protein = Major prion protein (Homo sapiens, UniProt P04156); format: functional, cell-based
cells [6] = assay: cells
[7] = HGIII-sPLA2 enzyme inhibition potency – biochemical, QFRET, IC50, dose response (AID 743457);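 further: green fluorescence rise as the enzyme cleaves BODIPY PC-A2 in liposomes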
Beta-lactamase [8] = biological target: Beta-lactamase (Pseudomonas aeruginosa, UniProt Q79MP6);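 further: biochemical dose-response test of metallo-beta-lactamase enzyme inhibition, read out by epi-absorbance; purified recombinant IMP-1 metallo-beta-lactamase with nitrocefin as substrate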
Beta-lactamase [9] = biological target: Beta-lactamase (Salmonella choleraesuis (strain SC-B67), UniProt Q5J463)
[10] = biological target: T2, Low molecular weight phosphotyrosine protein phosphatase (Homo sapiens, UniProt P24666); format: functional; conditions: read-out: IC50_Mean;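 further: Dose-response confirmation assay measuring inhibition of LMPTP enzyme activity by fluorescence intensity read-out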
T2 sequence (P24666 whole entry): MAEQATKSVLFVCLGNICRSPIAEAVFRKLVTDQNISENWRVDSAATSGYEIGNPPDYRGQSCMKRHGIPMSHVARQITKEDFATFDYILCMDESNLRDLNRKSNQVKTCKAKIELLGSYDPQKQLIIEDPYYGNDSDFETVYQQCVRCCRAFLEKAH

[11] = biological target: T3, RNA-binding protein pos-1 (Caenorhabditis elegans, UniProt G5EF15); assay: disruptors of C. elegans POS-1 RNA interaction – biochemical, fluorescence polarization, dose response (AID 1964);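 further: purified POS-1 fused to maltose binding protein made in E. coli; potency of compounds blocking POS-1 binding to fluorescent RNA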
T3 sequence (G5EF15 whole entry): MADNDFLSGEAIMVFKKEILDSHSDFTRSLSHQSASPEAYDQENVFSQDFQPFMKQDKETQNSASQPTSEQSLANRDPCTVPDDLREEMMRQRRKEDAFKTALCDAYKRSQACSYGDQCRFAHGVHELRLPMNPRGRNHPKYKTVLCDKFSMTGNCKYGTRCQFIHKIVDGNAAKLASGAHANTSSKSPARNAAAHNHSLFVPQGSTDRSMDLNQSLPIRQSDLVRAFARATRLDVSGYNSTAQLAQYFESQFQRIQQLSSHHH

[12] = biological target: T4, Zinc finger protein mex-5 (Caenorhabditis elegans, UniProt Q9XUB2); assay: potency of MEX-5 RNA-binding blockers – biochemical, C. elegans, fluorescence polarization, dose response (AID 1960)
T4 sequence (Q9XUB2 whole entry): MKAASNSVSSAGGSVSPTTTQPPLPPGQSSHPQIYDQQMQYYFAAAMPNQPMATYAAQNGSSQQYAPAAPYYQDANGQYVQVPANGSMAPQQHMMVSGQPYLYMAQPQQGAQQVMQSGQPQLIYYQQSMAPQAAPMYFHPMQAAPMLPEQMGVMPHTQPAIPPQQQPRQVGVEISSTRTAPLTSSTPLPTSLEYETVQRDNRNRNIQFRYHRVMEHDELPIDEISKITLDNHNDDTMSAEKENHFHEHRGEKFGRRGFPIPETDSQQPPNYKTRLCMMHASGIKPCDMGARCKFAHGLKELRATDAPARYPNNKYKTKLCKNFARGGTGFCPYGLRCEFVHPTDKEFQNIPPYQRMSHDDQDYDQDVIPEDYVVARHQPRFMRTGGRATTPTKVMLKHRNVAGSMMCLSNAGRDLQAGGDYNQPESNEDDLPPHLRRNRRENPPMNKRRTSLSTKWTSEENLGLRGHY

Albumin = Albumin (Bos taurus, UniProt P02769); assay: Counterscreen for inhibitors of T-cell receptor (TCR)-CD3 interaction: Fluorescence-based biochemical high throughput dose response assay to identify inhibitors of T-cell receptor (TCR)-CD3 interaction using a TAMRA-labeled BSA probe.; format: functional
[13] = blockers of HIV-1 envelope-mediated cell-cell fusion – cherry-pick, dose response (AID 652057); format: functional, cell-based
[14] = viability loss in CEM21 cells – cell-based, CellTiter-Glo luminescence, cherry-picked, cytotoxicity control for viral fusion inhibitor project, dose response (AID 652042); format: functional;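 further: potency for signal decrease meaning cytotoxicity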
[15] = blockers of HIV-1 ZM109 envelope-driven cell-cell fusion – HeLa effector, CEM target cells, luciferase, cherry-pick, dose response (AID 652058); format: functional, cell-based;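 further: luciferase signal from HIV-1 Env mediated cell-cell fusion of effector and target cells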
[16] = HIV-1 AD8 envelope cell-cell fusion blockers – cherry-pick, dose response (AID 652062); format: functional, cell-based;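 further: luciferase signal from cell-cell fusion driven by HIV-1 clade B AD8 Env; potency is for inhibitors of fusion seen as a drop in luminescence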

Which AC50 [1] does the source give for `N#Cc1cccc(-c2ccc([C@@H]3[C@@H]4CN(Cc5ccccc5F)C[C@H]3N4)cc2)c1` here?
The AC50 was 8.09 µM (active).

For `Clc1ccc(CCNCc2ccncc2)c(Cl)c1`, which IC50 (cells [2]) is on record?
The IC50 was > 29.9 µM (inactive).

What about the EC50 [3] of the same compound?
The EC50 was 2.01 µM (active).

What about the IC50 [4] of the same compound?
Its IC50 is 6.77 µM (active).

And the EC50 (cells [5])?
The EC50 was > 29.9 µM (inactive).

With `CCOc1ccc(C(=O)C2=C(O)C(=O)N(c3ccccn3)C2c2ccccc2F)c(C)c1` (centres undefined) as the compound, how does the IC50 (Major prion protein) read?
Its IC50 is 5.58 µM (active).

What about the IC50 (cells [6]) of the same compound?
The IC50 was > 138 µM (inactive).

With `O=C(CNc1cccc(Cl)c1)NNC(=S)NCc1ccccc1` as the compound, how does the IC50 [7] read?
Its IC50 is > 122 µM (inactive).

Which IC50 (Beta-lactamase [8]) does the source give for `CCn1c(=S)sc2c(=O)n(CC(=O)Nc3ccccc3C(F)(F)F)c(C)nc21` here?
The IC50 was 22.7 µM (inactive).

What about the IC50 (Beta-lactamase [9]) of the same compound?
The IC50 was > 59.6 µM (inactive).

And the IC50 [10]?
Its IC50 is 16.2 µM (active).

Which EC50 [11] does the source give for `CCCCCCn1c(=O)[nH]c2nc3cc(N)ccc3nc2c1=O` here?
The EC50 was > 300 µM (inconclusive).

What about the EC50 [12] of the same compound?
Its EC50 is > 300 µM (inconclusive).

What about the IC50 (Beta-lactamase [8]) of the same compound?
The IC50 was > 59.6 µM (inactive).

And the IC50 (Beta-lactamase [9])?
The IC50 was 9.7 µM (active).

With `O=C(NNC(=O)c1c(O)c2ccccc2[nH]c1=O)c1ccccc1` as the compound, how does the IC50 (Albumin) read?
Its IC50 is > 94.1 µM (inactive).

For `Cc1ccc(S(=O)(=O)Nc2ccc3c(c2)C(=O)N([C@H](C)CO)C[C@@H](C)[C@@H](CN(C)Cc2ccc(-c4ccccc4)cc2)O3)cc1`, which AC50 [13] is on record?
Its AC50 is 18 µM (active).

What about the AC50 [14] of the same compound?
The AC50 was 21.8 µM (active).

And the AC50 [15]?
The AC50 was 16.6 µM (active).

What about the AC50 [16] of the same compound?
The AC50 was 17.4 µM (active).

Which results are given for `CCOc1ccc([N+](=O)[O-])cc1CNCCc1ccccc1`?
IC50 (cells [2]): > 29.9 µM (inactive); EC50 [3]: 0.337 µM (active); IC50 [4]: 4.18 µM (active); EC50 (cells [5]): > 29.9 µM (inactive)
